Reference: US20240002424A1, “HEXOSAMINE COMPOUNDS AND METHODS THEREOF” (National Institute of Immunology, priority 2021, published 2024)

Assays:
Assay type in all cases: cell-based, human
Jurkat cells = assay: GalNAz expression on the cell surface, co-incubation with Ac4GalNAz (3), DBCO-Cy5 flow cytometry; conditions: 50 μM co-incubated with 3 (50 μM)
Description: Effect of ManNAc analogues on NeuAz and GalNAz expression: Jurkat cells were incubated under various conditions, namely, (i) D, 1c, 3, 1a, or 1b alone, (ii) 1a or 1b in combination with 1c, (iii) 1a or 1b in combination with 3. After 24 h, cells were harvested, washed, labelled using DBCO-Cy5 ([…]), processed, and analysed by flow cytometry as mentioned above
The high degree of selectivity of ManNAc analogues for processing by the sialic acid biosynthetic pathway was further confirmed by competitive studies using Ac4GalNAz (3) which is known to be processed through both the mucin-type O-glycosylation (MTOG) and β-O-GlcNAc-ylation pathways. The expression of NeuAz by 1c was suppressed by 1a or 1b (50 μM) to an extent of 50% upon co-incubation. By contrast, no reduction in the expression of N-azidoacetyl-D-galactosamine (GalNAz) on the cell surface was noticed upon co-incubation of 3 (50 μM) with 1a or 1b (50 μM) (FIG. 6E and FIG. 7C).

HL-60 cells [1] = assay: Far-western blot of total lysates with biotinylated SNA; conditions: HL-60 lysates; 50 μM, 72 h
Description: After 72 h, cells were harvested and lyzed in RIPA buffer containing PIC. Protein concentration in the soluble fraction was estimated using Bradford assay, subjected to 10% SDS-PAGE, blotted onto nitrocellulose membranes (constant current 250 mA, 3 h, 4° C.). Membranes were blocked using 2% w/v gelatin (5.0 mL) in 0.1% PBS-T at room temperature. After 1h, membranes were incubated with either bMAL-II (1:2000, stock conc. 1.0 mg/mL) or bSNA (1:5000, stock conc. 2.0 mg/mL) in 0.1% PBS-T (5.0 mL) at room temperature. After 1 h, membranes were washed using 0.1% PBS-T (6×5.0 mL, 5.0 min), followed by incubation with HRPconjugated avidin (1:50000, stock conc. 2.0 mg/mL) in 0.1% PBS-T (5.0 mL). After 30 min, membranes were washed using 0.1% PBS-T (6×5.0 mL, 5.0 min). Blots were developed using enhanced chemiluminescence substrate and photographic films. Blots using anti-β-actin (as mentioned above) were performed in parallel as loading controls. At least two independent replicate experiments were performed.

HL-60 cells [2] = assay: Cell surface sialyl-Lewis-X (CD15s) by anti-CD15s (CSLEX1) flow cytometry; conditions: 50 μM, 24 h
Description: Effect of ManNAc analogues on the expression of sialyl-Lewis-X and Lewis-X: HL-60 cells (3.0×10^5 cells/mL in 2.0 mL complete medium in 6 well plate) were treated with D (vehicle), 1a, 1b, 1c, 1d, 1e, 1f, or 1g (50 PM), along with untreated (U) control. After 24 h, cells were harvested and washed with PBS (3×0.5 mL, 3000×g, 3.0 min at room temperature). Prior to last wash, cells were counted using Z2 coulter counter and aliquoted at 2.5×10^5 cells per sample and stained with either mouse anti-human CD15s (CSLEX1) (1.25 μg/mL) or mouse anti-human CD15 (HI98) (2.5 μg/mL) in HEPES/CaCl2) buffer (30 mM HEPES, 110 mM NaCl, 10 mM KCl, 2 mM MgCl2, 10 mM glucose, 1.5 mM CaCl2) containing 0.1% bovine serum albumin, pH 7.3) (total volume of 100 μL) for 30 min at 4° C. Cells were washed with HEPES/CaCl2 buffer (2×0.5 mL) and stained with AlexaFluor488-conjugated anti-mouse IgM (2.5 μg/mL) (for both CD15s and CD15) in 100 μL HEPES/CaCl2 for 30 min at 4° C. Cells were washed with HEPES/CaCl2 buffer (2×0.5 mL), resuspended in PBS (0.2 mL), treated with PI (2.5 μg/ml) and analysed by BD FACSVerse. Samples treated with (i) isotype antibodies followed by secondary antibody and (ii) secondary antibody alone were prepared as controls. Single Cells were gated for PI-negative population for 10,000 events and analysed by flow cytometry. Two replicate samples were prepared for each condition and each sample was counted twice. Three independent experiments were performed. Data was analysed using FlowJo V10. For plotting graph and calculation of significant probability ‘p’ values, two-way ANOVA with Dunnett's multiple comparison tests was employed in GraphPad Prism 8.
Time course of CD15s expression: HL-60 cells (3.0×10^5 cells/mL in 2.5 mL complete medium in 6-well plates) were incubated with D, 1a, 1b, or 1d (50 mM). At each time point, from day 1 to day 6, the cells were harvested from the entire contents of the well, washed, and aliquoted to 5.0×10^5 cells per sample, and immuno-stained using anti-CD15s (CSLEX1) antibody as mentioned above. On day 3, 4, and 5 complete media (1.0 mL) was added to each remaining well in order to compensate for media exhaustion. No contents were removed from the well during the period.

HL-60 cells [3] = assay: MAL-II lectin binding on intact cells by flow cytometry; conditions: 50 μM, 24 h
HL-60 cells [4] = assay: Cell surface sialyl-Lewis-X (CD15s) by anti-CD15s (CSLEX1) flow cytometry

| SMILES | reduction in expression of GalNAz on the cell surface (Jurkat cells) | SNA epitopes in lectin blot compared to controls (HL-60 cells [1]) | increase in binding of CSLEX1 antibody (sLeX) compared to controls (HL-60 cells [2]) [fold] | MAL-II binding on intact cells compared to untreated cells (HL-60 cells [3]) | maximum increase in sLeX levels on day 2 (HL-60 cells [4]; single dosage 50 μM, day 2) [fold] | sLeX levels by day 6 (in words) (HL-60 cells [4]; single dosage 50 μM, day 6) | sLeX levels on day 6, fold higher (HL-60 cells [4]; single dosage 50 μM, day 6) | day of peak sLeX expression (HL-60 cells [4]; single dosage 50 μM, time course day 1 to day 6) [days] | increase in binding of CSLEX1 antibody (sLeX), in words (HL-60 cells [2]) | change in sLeX levels in time course (in words) (HL-60 cells [4]; 50 μM, time course) |
| --- | --- | --- | --- | --- | --- | --- | --- | --- | --- | --- |
| CC(=O)OC[C@H]1O[C@H](OC(C)=O)[C@@H](NC(=O)C2CC2)[C@@H](OC(C)=O)[C@@H]1OC(C)=O [Compound 1a, 1,3,4,6-tetra-O-acetyl-2-cyclopropanoylamino-2-deoxy-α-D-mannopyranose] | no reduction | significant reduction | ~2.5 | significant gain | – | – | – | – | – | – |
| CC(=O)OC[C@H]1OC(OC(C)=O)[C@@H](NC(=O)C2CCC2)[C@@H](OC(C)=O)[C@@H]1OC(C)=O (stereo partly drawn) [Compound 1b, (3S,4R,5S,6R)-6-(acetoxymethyl)-3-(cyclobutanecarboxamido)tetrahydro-2H-pyran-2,4,5-triyl triacetate] | no reduction | significant reduction | – | significant gain | 3.0 | returned to normal levels | approximately 2.3 fold | 2 | nearly a four-fold increase | – |
| CC(=O)NC1C(OC(C)=O)OC(COC(C)=O)[C@@H](OC(C)=O)[C@@H]1OC(C)=O (stereo partly drawn) [Compound 1d, 1,3,4,6-tetra-O-acetyl-2-acetylamino-2-deoxy-α/β-D-mannopyranose] | – | – | – | – | – | – | – | – | – | no change |
